# Reference: US20190194148A1, “TETRAZOLE-CONTAINING 1,2-CYCLOPROPANE-CARBOXAMIDES” (Bayer Pharma Aktiengesellschaft, priority 2017, published 2019)
# Molecular target: T1, human B1 receptor (Homo sapiens, UniProt P46663)
# T1 construct: host or cells: CHO-K1
# T1 sequence (P46663 1-353): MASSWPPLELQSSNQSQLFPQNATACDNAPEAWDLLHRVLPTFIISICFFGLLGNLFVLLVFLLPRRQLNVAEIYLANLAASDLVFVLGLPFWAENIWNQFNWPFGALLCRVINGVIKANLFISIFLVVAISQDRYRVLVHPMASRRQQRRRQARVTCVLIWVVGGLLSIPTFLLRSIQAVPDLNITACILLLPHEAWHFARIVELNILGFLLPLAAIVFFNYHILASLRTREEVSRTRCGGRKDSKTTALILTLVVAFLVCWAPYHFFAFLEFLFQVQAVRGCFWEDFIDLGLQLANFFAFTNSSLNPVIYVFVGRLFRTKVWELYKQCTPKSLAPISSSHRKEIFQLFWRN
# Test: Calcium flux assay (FLIPR) with recombinant CHO-K1 cells expressing human B1 receptor
# Type: cell-based
# Conditions: absence of 0.1% BSA in assay buffer, read-out: hB1 free IC50
# Procedure: The potency to inhibit the Bradykinin B1 receptors was determined for the example compounds of this invention in a cell-based fluorescent calcium-mobilisation assay. The assay measures the ability of example compounds to inhibit Bradykinin B1 receptor agonist-induced increase of intracellular free Ca^2+ in the cell line expressing B1 receptor. Specifically, calcium indicator-loaded cells are pre-incubated in the absence or presence of different concentrations of example compounds followed by the stimulation with a selective B1 receptor agonist peptide. The change of the intracellular Ca^2+ concentration is monitored with a fluorescent plate reader FLIPR (Molecular Devices).
# Calcium Flux Assays (FLIPR) with Cells Expressing Bradykinin B1 Receptor Calcium Flux Assay (FLIPR) with Recombinant Cells for Bradykinin B1 Receptor Antagonist, Either in the Presence (hB1 IC50) or Absence (hB1 free IC50) of 0.1% Bovine Serum Albumin (BSA) in Assay Buffer
# CHO-K1 cell line expressing human B1 receptor was purchased from Euroscreen (Gosselies, Belgium, with reference name hB1-D1). The cells were grown in Nutrient Mixture Ham's F12 (Sigma) containing 10% Foetal bovine serum (Sigma) and 400 μg/mL G418 (Sigma), 5 μg/mL puromycin (Sigma).
# For the calcium flux assay, 80% confluent cells were detached from the culture vessels with Versene (Gibco), and seeded into 384-well plates (Cell binding Surface; Corning, N.Y.; #3683) at a density of 15,000 cells per well. Cells were seeded in a volume of 50 μL in medium without antibiotics and incubated overnight in a humidified atmosphere with 5% CO2 at 37° C. […] The calcium indicator loaded cells were incubated at 37° C. for 2 hrs. Extracellular dye was then removed and each well was filled with 45 μL of assay buffer. Cell plates were kept in dark until used. Example compounds were assayed at 8 concentrations in triplicate. Serial 10-fold dilutions in 100% DMSO were made at a 100-times higher concentration than the final concentration, and then diluted 1:10 in assay buffer. 5 μL of each diluted compound was added to the well of cell plates (yielding final concentration with 1% DMSO), and incubated for 30 min at 28° C. before the addition of B1 receptor agonist on the FLIPR instrument.
# Agonist plates contained the agonist Lys-(Des-Arg)-Bradykinin (Bachem, Brackley) at 3.5×EC90 in assay buffer with 1% DMSO. The addition of agonist 20 μl per well to the assay plate was carried out on the FLIPR instrument while continuously monitoring Ca^2+-dependent fluorescence at 538 nm. A peptide antagonist Lys-(Des-Arg-Leu)-Bradykinin (Bachem, Brackley) at 20 μM was used to determine the full inhibition as control.
# Peak fluorescence was used to determine the response to agonist obtained at each concentration of example compound by the following equation:
# % Response=100*(RFU(example compound)−RFU(control)/(RFU(DMSO)−RFU(control)
# Control=full inhibition by the peptide antagonist Lys-(Des-Arg-Leu)-Bradykinin at 20 μM
# The response values were plotted against the logarithm of the compound concentrations. The compounds were tested in triplicates per plate and mean values were plotted in Excel XLfit to determine IC50 values, percentage of maximal inhibition and the Hill slopes.
row,IC50 [nM],Structure (SMILES)
1,509,"O=C(Nc1ccc(-c2ccc(C(F)(F)F)nc2)c(-c2nnn[nH]2)c1)C1CC1c1ccccc1 (racemic) [Example 28, 2-Phenyl-N-{3-(1H-tetrazol-5-yl)-4-[6-(trifluoromethyl)pyridin-3-yl]phenyl}cyclopro-panecarboxamide]"
2,188,"O=C(Nc1cc(-c2nnn[nH]2)c(-c2ccc(C(F)(F)F)nc2)cc1O)C1CC1c1ccc(Cl)cc1 (stereo not shown) [Example 83, 2-(4-chlorophenyl)-N-[2-hydroxy-5-(1H-tetrazol-5-yl)-4-[6-(trifluoromethyl)-3-pyridyl]phenyl]cyclo-propanecarboxamide]"
3,24,"COc1ccc(-c2cc(F)c(NC(=O)C3CC3c3ccc(Cl)cc3)cc2-c2nnn[nH]2)cc1C (racemic) [Example 57, 2-(4-chlorophenyl)-N-[5-fluoro-4′-methoxy-3′-methyl-2-(1H-tetrazol-5-yl)biphenyl-4-yl]cyclo-propanecarboxamide]"
4,1180,"O=C(Nc1ccc(-n2cc(C(F)(F)F)cn2)c(-c2nnn[nH]2)c1)C1CC1c1ccc(Cl)cc1 (racemic) [Example 46, 2-(4-Chlorophenyl)-N-{3-(1H-tetrazol-5-yl)-4-[4-(trifluoromethyl)-1H-pyrazol-1-yl]phenyl}cyclopropane-carboxamide]"

# Same assay, conditions: presence of 0.1% BSA in assay buffer, read-out: hB1 IC50
row,Structure (SMILES),IC50 [nM]
1,"CCOc1ccc(-c2ccc(NC(=O)C3CC3C3CCCCC3)cc2-c2nnn[nH]2)cn1 (racemic) [Example 20, 2-Cyclohexyl-N-[4-(6-ethoxypyridin-3-yl)-3-(1H-tetrazol-5-yl)phenyl]cyclopro-panecarboxamide]",389
2,"CCOc1ccc(-c2cc(C)c(NC(=O)C3CC3c3cccc(C)c3)cc2-c2nnn[nH]2)cn1 (racemic) [Example 63, N-[4-(6-Ethoxypyridin-3-yl)-2-methyl-5-(1H-tetrazol-5-yl)phenyl]-2-(3-methylphenyl)cyclo-propanecarboxamide]",24
3,"COc1ccc(-c2c(F)cc(NC(=O)C3CC3C3CCCCC3)cc2-c2nnn[nH]2)cc1OC (racemic) [Example 60, 2-Cyclohexyl-N-[2-fluoro-3′,4′-dimethoxy-6-(1H-tetrazol-5-yl)biphenyl-4-yl]cyclopro-panecarboxamide]",177
4,"CCOc1ccc(-c2cc(O)c(NC(=O)C3CC3c3ccc(Cl)cc3)cc2-c2nnn[nH]2)cn1 (single isomer, unassigned) [Example 50, 2-(4-chlorophenyl)-N-[4-(6-ethoxypyridin-3-yl)-2-hydroxy-5-(1H-tetrazol-5-yl)phenyl]cyclopropane-carboxamide]",24
5,"CCOc1ccc(-c2ccc(NC(=O)C3CC3C3CCCCC3)cc2-c2nnn[nH]2)cc1OC (racemic) [Example 31, 2-cyclohexyl-N-[4′-ethoxy-3′-methoxy-2-(1H-tetrazol-5-yl)biphenyl-4-yl]cyclopropane-carboxamide]",27
6,"O=C(Nc1cc(-c2nnn[nH]2)c(-c2ccc(C(F)(F)F)nc2)cc1O)C1CC1c1ccc(Cl)cc1 (stereo not shown) [Example 83, 2-(4-chlorophenyl)-N-[2-hydroxy-5-(1H-tetrazol-5-yl)-4-[6-(trifluoromethyl)-3-pyridyl]phenyl]cyclo-propanecarboxamide]",484
7,"COc1cncc(-c2ccc(NC(=O)C3CC3C3CCCCC3)cc2-c2nnn[nH]2)c1 (racemic) [Example 24, 2-Cyclohexyl-N-[4-(5-methoxypyridin-3-yl)-3-(1H-tetrazol-5-yl)phenyl]cyclopro-panecarboxamide]",310
8,"COCc1ccc(-c2ccc(NC(=O)C3CC3C3CCCCC3)cc2-c2nnn[nH]2)cc1C (racemic) [Example 33, 2-cyclohexyl-N-[4′-(methoxymethyl)-3′-methyl-2-(1H-tetrazol-5-yl)biphenyl-4-yl]cyclo-propanecarboxamide]",28
9,"CCOc1ccc(-c2cc(O)c(NC(=O)C3CC3c3ccc(Cl)cc3)cc2-c2nnn[nH]2)cn1 (single isomer, unassigned) [Example 49, 2-(4-chlorophenyl)-N-[4-(6-ethoxypyridin-3-yl)-2-hydroxy-5-(1H-tetrazol-5-yl)phenyl]cyclopropane-carboxamide]",1580
10,"COc1ccc(-c2cc(C)c(NC(=O)C3CC3C3CCCCC3)cc2-c2nnn[nH]2)cc1C (racemic) [Example 74, 2-Cyclohexyl-N-[4′-methoxy-3′,5-dimethyl-2-(1H-tetrazol-5-yl)biphenyl-4-yl]cyclopro-panecarboxamide]",299

# Second part, the molecule after the results:
row,IC50 [nM],Structure (SMILES)
1,1470,"COCc1ccc(-c2ccc(NC(=O)C3CC3c3ccc(Cl)cc3)cc2-c2nnn[nH]2)cc1 (racemic) [Example 38, 2-(4-chlorophenyl)-N-[4′-(methoxymethyl)-2-(1H-tetrazol-5-yl)biphenyl-4-yl]cyclopropanecarbox-amide]"
2,22,"COCc1ccc(-c2ccc(NC(=O)C3CC3c3ccc(Cl)cc3)cc2-c2nnn[nH]2)cc1C (racemic) [Example 32, 2-(4-chlorophenyl)-N-[4′-(methoxymethyl)-3′-methyl-2-(1H-tetrazol-5-yl)biphenyl-4-yl]cyclopro-panecarboxamide]"
3,19,"COc1ccc(-c2cc(F)c(NC(=O)C3CC3c3cccc(C)c3)cc2-c2nnn[nH]2)cc1C (racemic) [Example 56, N-[5-Fluoro-4′-methoxy-3′-methyl-2-(1H-tetrazol-5-yl)biphenyl-4-yl]-2-(3-methylphenyl)cyclopro-panecarboxamide]"
4,16,"COc1ccc(-c2cc(F)c(NC(=O)C3CC3c3cccc(C)c3)cc2-c2nnn[nH]2)cc1OC (racemic) [Example 53, N-[5-Fluoro-3′,4′-dimethoxy-2-(1H-tetrazol-5-yl)biphenyl-4-yl]-2-(3-methylphenyl)cyclopro-panecarboxamide]"
5,232,"COc1ccc(-c2ccc(NC(=O)C3CC3c3ccc(Cl)cc3)cc2-c2nnn[nH]2)cc1C (racemic) [Example 34, 2-(4-chlorophenyl)-N-[4′-methoxy-3′-methyl-2-(1H-tetrazol-5-yl)biphenyl-4-yl]cyclopropanecarbox-amide]"
6,95,"COc1ccc(-c2ccc(NC(=O)C3CC3c3ccc(F)cc3)cc2-c2nnn[nH]2)cc1OC (racemic) [Example 11, N-[3′,4′-dimethoxy-2-(1H-tetrazol-5-yl)biphenyl-4-yl]-2-(4-fluorophenyl)cyclopro-panecarboxamide]"
7,283,"COc1ccc(-c2cc(C)c(NC(=O)C3CC3c3ccc(Cl)cc3)cc2-c2nnn[nH]2)cc1OC (racemic) [Example 66, 2-(4-Chlorophenyl)-N-[3′,4′-dimethoxy-5-methyl-2-(1H-tetrazol-5-yl)biphenyl-4-yl]cyclopro-panecarboxamide]"
8,1230,"COc1ccc(-c2ccc(NC(=O)C3CC3c3ccc(Cl)cc3)cc2-c2nnn[nH]2)cc1Cl (racemic) [Example 39, N-[3′-chloro-4′-methoxy-2-(1H-tetrazol-5-yl)biphenyl-4-yl]-2-(4-chlorophenyl)cyclopro-panecarboxamide]"
9,124,"COc1ccc(-c2cc(F)c(NC(=O)C3CC3c3ccc(Cl)cc3)cc2-c2nnn[nH]2)cc1C (racemic) [Example 57, 2-(4-chlorophenyl)-N-[5-fluoro-4′-methoxy-3′-methyl-2-(1H-tetrazol-5-yl)biphenyl-4-yl]cyclo-propanecarboxamide]"
10,33,"COc1ccc(-c2ccc(NC(=O)C3CC3c3ccc(C)cc3)cc2-c2nnn[nH]2)cc1OC (racemic) [Example 10, N-[3′,4′-dimethoxy-2-(1H-tetrazol-5-yl)biphenyl-4-yl]-2-(4-methylphenyl)cyclopro-panecarboxamide]"
11,19,"COc1ccc(-c2ccc(NC(=O)C3CC3c3ccc(Cl)cc3)cc2-c2nnn[nH]2)cc1OC (racemic) [Example 9, 2-(4-chlorophenyl)-N-[3′,4′-dimethoxy-2-(1H-tetrazol-5-yl)biphenyl-4-yl]cyclo-propanecarboxamide]"
